Measurements from ChEMBL document CHEMBL2169755, “A Divergent SAR Study Allows Optimization of a Potent 5-HT2c Inhibitor to a Promising Antimalarial Scaffold” (ACS Med Chem Lett, 2012).
Values after ≈ are worked out from the molar mass of the structure shown. Active and inactive are the calls of the source. The rule behind the calls is not given here.

Key:
[1] = biological target: T1, 5-hydroxytryptamine receptor 2C (Homo sapiens, UniProt P28335); assay: Inhibition of human 5HT2c receptor expressed in CHO-K1 cells assessed as inhibition of 5HT-induced calcium influx measured up to 30 secs by aequorin luminescence assay; format: functional, cell-based
T1 sequence (P28335 whole entry): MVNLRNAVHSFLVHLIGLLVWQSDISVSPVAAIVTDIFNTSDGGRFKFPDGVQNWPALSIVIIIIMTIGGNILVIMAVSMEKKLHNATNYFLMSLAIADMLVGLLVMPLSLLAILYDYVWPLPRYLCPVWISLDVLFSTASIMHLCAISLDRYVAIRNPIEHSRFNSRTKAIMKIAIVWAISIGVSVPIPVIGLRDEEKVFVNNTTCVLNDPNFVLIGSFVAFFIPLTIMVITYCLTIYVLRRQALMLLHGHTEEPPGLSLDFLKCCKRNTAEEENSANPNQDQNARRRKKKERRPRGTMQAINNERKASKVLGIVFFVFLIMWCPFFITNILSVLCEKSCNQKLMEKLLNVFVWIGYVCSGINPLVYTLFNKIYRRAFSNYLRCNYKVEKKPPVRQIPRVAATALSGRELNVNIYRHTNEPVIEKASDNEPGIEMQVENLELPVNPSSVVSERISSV

Plasmodium falciparum [2] = assay: microbe, parasite or virus in culture; conditions: 3D7 A
Description: Antiplasmodial activity against Plasmodium falciparum 3D7A assessed as inhibition of [3H]hypoxanthine incorporation incubated for 24 hrs prior to [3H]hypoxanthine addition measured after 24 hrs by beta scintillation counting

Plasmodium falciparum [3] = assay: Antiplasmodial activity against Plasmodium falciparum assessed as pyknotic phenotype after 24 hrs by Giemsa-staining method; format: functional, organism-based
[4] = Plasma protein binding in mouse at 1 ug/mL by equilibrium dialysis method; format: ADME, cell-free; conditions: read-out: PPB (converted)
Cytochrome P450 2C9 = Cytochrome P450 2C9 (Homo sapiens, UniProt P11712); assay: Inhibition of human CYP2C9 using 7-methoxy-4-triflouromethylcoumarin-3-acetic acid as substrate incubated for 30 mins prior to substrate addition measured up to 10 mins by fluorimetry; format: ADME
Cytochrome P450 2C9, sequence (P11712 whole entry): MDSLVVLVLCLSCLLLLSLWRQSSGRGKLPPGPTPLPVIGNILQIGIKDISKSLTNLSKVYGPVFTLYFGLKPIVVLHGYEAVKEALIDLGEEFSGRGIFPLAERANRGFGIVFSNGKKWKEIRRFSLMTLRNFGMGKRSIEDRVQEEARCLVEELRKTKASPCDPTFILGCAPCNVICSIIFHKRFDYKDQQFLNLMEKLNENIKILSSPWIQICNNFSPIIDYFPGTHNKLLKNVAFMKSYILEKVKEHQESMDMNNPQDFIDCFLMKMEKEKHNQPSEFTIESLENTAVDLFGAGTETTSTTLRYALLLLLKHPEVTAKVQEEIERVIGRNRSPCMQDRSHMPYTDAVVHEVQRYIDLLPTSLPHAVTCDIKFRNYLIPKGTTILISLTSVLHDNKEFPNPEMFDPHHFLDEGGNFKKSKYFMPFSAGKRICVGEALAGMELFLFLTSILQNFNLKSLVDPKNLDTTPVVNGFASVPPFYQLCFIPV

Cytochrome P450 2D6 = Cytochrome P450 2D6 (Homo sapiens, UniProt P10635); assay: Inhibition of human CYP2D6 using 4-methylaminomethyl-7-methoxycoumarin as substrate incubated for 30 mins prior to substrate addition measured up to 10 mins by fluorimetry; format: ADME
Cytochrome P450 2D6, sequence (P10635 whole entry): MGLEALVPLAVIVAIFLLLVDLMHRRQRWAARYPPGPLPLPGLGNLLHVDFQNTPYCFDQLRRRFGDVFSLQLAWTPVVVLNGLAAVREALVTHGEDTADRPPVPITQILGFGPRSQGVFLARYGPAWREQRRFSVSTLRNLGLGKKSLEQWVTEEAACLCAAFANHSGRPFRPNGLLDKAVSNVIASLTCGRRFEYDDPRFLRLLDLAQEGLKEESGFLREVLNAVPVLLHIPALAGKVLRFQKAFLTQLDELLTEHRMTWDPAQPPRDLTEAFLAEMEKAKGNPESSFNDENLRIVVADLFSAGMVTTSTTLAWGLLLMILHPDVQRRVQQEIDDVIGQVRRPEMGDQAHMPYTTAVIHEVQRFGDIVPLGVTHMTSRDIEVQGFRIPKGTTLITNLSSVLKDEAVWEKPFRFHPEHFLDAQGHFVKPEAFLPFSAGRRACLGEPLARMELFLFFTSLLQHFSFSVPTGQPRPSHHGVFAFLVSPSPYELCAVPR

Cytochrome P450 3A4 = Cytochrome P450 3A4 (Homo sapiens, UniProt P08684); assay: Inhibition of human CYP3A4 using 7-benzyloxyquinoline as substrate incubated for 30 mins prior to substrate addition measured up to 10 mins by fluorimetry; format: ADME
Cytochrome P450 3A4, sequence (P08684 whole entry): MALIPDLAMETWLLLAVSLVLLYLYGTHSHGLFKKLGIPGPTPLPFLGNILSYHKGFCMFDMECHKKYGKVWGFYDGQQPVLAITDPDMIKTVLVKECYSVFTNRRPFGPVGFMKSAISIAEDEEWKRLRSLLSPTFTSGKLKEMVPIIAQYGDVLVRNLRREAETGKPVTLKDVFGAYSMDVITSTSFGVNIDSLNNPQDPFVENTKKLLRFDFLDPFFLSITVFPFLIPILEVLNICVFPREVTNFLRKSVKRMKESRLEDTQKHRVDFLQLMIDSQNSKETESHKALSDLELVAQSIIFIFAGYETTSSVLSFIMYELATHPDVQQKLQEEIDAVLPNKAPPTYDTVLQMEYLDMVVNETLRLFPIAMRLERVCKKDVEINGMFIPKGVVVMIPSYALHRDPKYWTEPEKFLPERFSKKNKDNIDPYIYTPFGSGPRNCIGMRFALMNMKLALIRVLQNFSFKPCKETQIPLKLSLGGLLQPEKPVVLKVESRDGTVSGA

Cytochrome P450 2C19 = Cytochrome P450 2C19 (Homo sapiens, UniProt P33261); assay: Inhibition of human CYP2C19 using 3-butyryl-7-methoxycoumarin as substrate incubated for 30 mins prior to substrate addition measured up to 10 mins by fluorimetry; format: ADME
Cytochrome P450 2C19, sequence (P33261 whole entry): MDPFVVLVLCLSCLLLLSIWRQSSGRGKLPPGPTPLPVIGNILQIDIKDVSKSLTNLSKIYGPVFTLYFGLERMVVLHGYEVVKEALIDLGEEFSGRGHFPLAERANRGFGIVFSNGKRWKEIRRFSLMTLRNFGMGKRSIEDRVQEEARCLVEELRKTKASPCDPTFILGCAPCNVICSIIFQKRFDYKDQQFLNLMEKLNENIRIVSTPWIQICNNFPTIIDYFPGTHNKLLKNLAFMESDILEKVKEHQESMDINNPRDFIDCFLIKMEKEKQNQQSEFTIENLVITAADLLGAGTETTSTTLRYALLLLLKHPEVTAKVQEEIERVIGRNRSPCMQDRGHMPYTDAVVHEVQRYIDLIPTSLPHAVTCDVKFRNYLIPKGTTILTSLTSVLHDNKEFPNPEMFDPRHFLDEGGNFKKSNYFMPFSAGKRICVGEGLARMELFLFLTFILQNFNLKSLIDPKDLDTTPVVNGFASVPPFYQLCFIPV

[5] = biological target: Voltage-gated inwardly rectifying potassium channel KCNH2 (Homo sapiens, UniProt Q12809); assay: Displacement of Cy3b-tagged dofetilide from human ERG expressed in CHO cells by fluorescence polarization assay
Voltage-gated inwardly rectifying potassium channel KCNH2, sequence (Q12809 whole entry): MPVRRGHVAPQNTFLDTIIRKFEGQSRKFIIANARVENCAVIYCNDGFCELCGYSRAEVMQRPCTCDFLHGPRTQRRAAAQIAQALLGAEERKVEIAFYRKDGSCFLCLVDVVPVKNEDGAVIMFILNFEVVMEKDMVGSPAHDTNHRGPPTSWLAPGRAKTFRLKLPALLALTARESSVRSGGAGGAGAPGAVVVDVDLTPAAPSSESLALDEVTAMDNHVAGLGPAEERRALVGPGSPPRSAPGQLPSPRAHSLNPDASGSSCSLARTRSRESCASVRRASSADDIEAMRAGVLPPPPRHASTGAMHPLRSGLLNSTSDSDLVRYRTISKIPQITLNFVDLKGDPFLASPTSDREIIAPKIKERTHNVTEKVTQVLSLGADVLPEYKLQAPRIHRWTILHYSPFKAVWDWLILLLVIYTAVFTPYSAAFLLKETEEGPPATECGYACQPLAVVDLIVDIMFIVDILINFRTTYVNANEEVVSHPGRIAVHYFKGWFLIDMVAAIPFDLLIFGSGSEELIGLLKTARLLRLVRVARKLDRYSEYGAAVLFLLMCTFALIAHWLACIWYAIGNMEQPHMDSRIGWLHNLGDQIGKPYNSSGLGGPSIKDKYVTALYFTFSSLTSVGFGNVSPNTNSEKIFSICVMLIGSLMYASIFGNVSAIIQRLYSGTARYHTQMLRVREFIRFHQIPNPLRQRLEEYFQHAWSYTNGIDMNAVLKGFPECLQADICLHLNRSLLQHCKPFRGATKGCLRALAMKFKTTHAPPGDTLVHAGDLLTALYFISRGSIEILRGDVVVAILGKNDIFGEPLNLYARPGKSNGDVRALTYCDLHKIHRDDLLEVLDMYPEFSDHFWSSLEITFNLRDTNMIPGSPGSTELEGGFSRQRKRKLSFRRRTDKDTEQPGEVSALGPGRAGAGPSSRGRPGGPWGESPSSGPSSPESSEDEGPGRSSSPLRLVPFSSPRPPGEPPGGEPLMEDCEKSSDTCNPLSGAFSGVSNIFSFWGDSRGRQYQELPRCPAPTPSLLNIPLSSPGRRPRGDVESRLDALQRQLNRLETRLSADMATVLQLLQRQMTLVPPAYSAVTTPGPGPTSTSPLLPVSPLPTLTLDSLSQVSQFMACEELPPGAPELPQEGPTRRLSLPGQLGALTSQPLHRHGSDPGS

[6] = Chromatographic hydrophobicity index of the compound at pH 2; format: physicochemical
[7] = Chromatographic hydrophobicity index of the compound at pH 7.4; format: physicochemical
[8] = Chromatographic hydrophobicity index of the compound at pH 10.5; format: physicochemical
[9] = Equilibrium solubility of the compound in phosphate buffer saline after 24 hrs by LC-MS analysis at pH 7.4; format: physicochemical
[10] = Equilibrium solubility of the compound in fasted state simulated intestinal fluid after 24 hrs by LC-MS analysis at pH 6.8; format: physicochemical
[11] = Equilibrium solubility of the compound in fed state simulated intestinal fluid after 24 hrs by LC-MS analysis at pH 5; format: physicochemical
Plasmodium falciparum [12] = assay: Antiplasmodial activity against Plasmodium falciparum 3D7A assessed as inhibition of [3H]hypoxanthine incorporation after 96 hrs by beta scintillation counting; format: functional, organism-based; conditions: 3D7 A
Plasmodium falciparum [13] = assay: Antiplasmodial activity against Plasmodium falciparum assessed as pyknotic phenotype at 10-fold IC50 after 24 hrs by Giemsa-staining method; format: functional, organism-based
Plasmodium falciparum [14] = assay: Antiplasmodial activity against Plasmodium falciparum 3D7A assessed as inhibition of [3H]hypoxanthine incorporation after 72 hrs by beta scintillation counting; format: functional, organism-based; conditions: 3D7 A
[15] = Equilibrium solubility of the compound in simulated gastric fluid after 24 hrs by LC-MS analysis at pH1.2; format: physicochemical; conditions: pH 1.2
Plasmodium falciparum [16] = assay: Selectivity ratio of IC50 for Plasmodium falciparum Dd2 to IC50 for Plasmodium falciparum HB3; format: functional
Plasmodium falciparum [17] = assay: Antiplasmodial activity against Plasmodium falciparum HB3 assessed as inhibition of [3H]hypoxanthine incorporation incubated for 24 hrs prior to [3H]hypoxanthine addition measured after 24 hrs by beta scintillation counting; format: functional, organism-based
Plasmodium falciparum [18] = assay: Antiplasmodial activity against Plasmodium falciparum Dd2 assessed as inhibition of [3H]hypoxanthine incorporation incubated for 24 hrs prior to [3H]hypoxanthine addition measured after 24 hrs by beta scintillation counting; format: functional, organism-based
[19] = Cytotoxicity against human HepG2 cells after 48 hrs by resazurin reduction assay; format: cell-based; conditions: read-out: TC50
[20] = Cytotoxicity against mouse L1210 cells after 48 hrs by resazurin reduction assay; format: cell-based; conditions: read-out: TC50
[21] = Cytotoxicity against mouse Neuro2a cells after 48 hrs by resazurin reduction assay; format: cell-based, N2a; conditions: read-out: TC50
[22] = Cytotoxicity against rat H9c2(2-1) cells after 48 hrs by resazurin reduction assay; format: cell-based; conditions: read-out: TC50
[23] = Cytotoxicity against MDCK cells after 48 hrs by resazurin reduction assay; format: cell-based, Canis lupus familiaris; conditions: dog, read-out: TC50
Liver = assay: Intrinsic clearance in mouse liver microsomes at 0.5 uM by HPLC analysis; format: ADME, Microsome
Liver microsomes = assay: Intrinsic clearance in human liver microsomes at 0.5 uM by HPLC analysis; format: ADME, Microsome
Albumin = Albumin (Homo sapiens, UniProt P02768); assay: Binding affinity to human serum albumin by HPLC analysis; format: ADME; conditions: isolated protein
Albumin, sequence (P02768 whole entry): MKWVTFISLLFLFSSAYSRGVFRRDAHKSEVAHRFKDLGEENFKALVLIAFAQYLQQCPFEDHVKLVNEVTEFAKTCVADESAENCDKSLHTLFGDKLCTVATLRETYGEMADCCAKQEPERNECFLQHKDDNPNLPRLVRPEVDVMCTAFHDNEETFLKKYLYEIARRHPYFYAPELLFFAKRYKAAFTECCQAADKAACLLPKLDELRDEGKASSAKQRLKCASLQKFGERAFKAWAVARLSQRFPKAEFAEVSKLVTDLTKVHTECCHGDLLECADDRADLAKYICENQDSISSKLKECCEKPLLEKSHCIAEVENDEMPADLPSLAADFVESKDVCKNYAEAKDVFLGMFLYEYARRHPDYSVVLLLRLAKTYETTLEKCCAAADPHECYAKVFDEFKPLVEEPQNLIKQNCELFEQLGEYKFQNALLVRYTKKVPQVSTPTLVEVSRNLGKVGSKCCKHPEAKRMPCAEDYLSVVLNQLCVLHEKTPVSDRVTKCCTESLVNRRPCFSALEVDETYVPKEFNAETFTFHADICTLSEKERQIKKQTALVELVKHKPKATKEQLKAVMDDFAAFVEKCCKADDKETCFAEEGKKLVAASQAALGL

Plasmodium berghei [24] = assay: Antimalarial activity against Plasmodium berghei ANKA infected in CD1 mouse assessed as inhibition of parasitemia at 50 mg/kg, po administered QD for 2 days measured after 4 days by YOYO1-based flow cytometric analysis relative to vehicle-treated control; format: functional
Plasmodium berghei [25] = assay: Antimalarial activity against Plasmodium berghei ANKA assessed as reduction in viable parasites at 10 times IC50 after 72 hrs; format: functional, organism-based

COc1ccc2c(c1)N(C(=O)Nc1cc(OC(F)(F)F)cc(-c3cccnc3)c1)CC2
IC50 [1]: 120 nM
IC50 (Plasmodium falciparum [2]): 90 nM

CCN(CC)CCCC(C)Nc1ccnc2cc(Cl)ccc12 (stereo unspecified)
Activity (Plasmodium falciparum [3]): Active

COc1cc2c(cc1C(F)(F)F)N(C(=O)Nc1cc(OC(F)(F)F)cc(-c3cccnc3)c1)CC2
fraction unbound at 1 ug/mL [4]: 0.002
IC50 (Cytochrome P450 2C9): 2000 nM
IC50 (Cytochrome P450 2D6): 13000 nM
IC50 (Cytochrome P450 3A4): > 50000 nM
IC50 (Cytochrome P450 2C19): > 50000 nM
Activity [5]: > 16 µM
CHI [6]: 3.09
CHI [7]: 4.22
CHI [8]: 4.18
solubility thermodynamic at 24 h [9]: < 0.1 µg/mL
solubility thermodynamic at 24 h [10]: < 0.1 µg/mL
solubility thermodynamic at 24 h [11]: 16.7 µg/mL (≈ 33.6 µM)
IC50 (Plasmodium falciparum [12]): 25 nM
Activity (Plasmodium falciparum [13]): Active
IC50 (Plasmodium falciparum [14]): 40 nM
solubility thermodynamic at 24 h [15]: 1550 µg/mL (≈ 3120 µM)
Ratio IC50 (Plasmodium falciparum [16]): >10
IC50 (Plasmodium falciparum [17]): 90 nM
IC50 (Plasmodium falciparum [18]): > 1000 nM
IC50 [1]: 50 nM
CC50 at 48 h [19]: 7000 nM
CC50 at 48 h [20]: 3200 nM
CC50 at 48 h [21]: > 12500 nM
CC50 at 48 h [22]: > 12500 nM
CC50 at 48 h [23]: > 12500 nM
CLH (Liver): < 0.3 mL/min/g
CLH (Liver microsomes): < 0.3 mL/min/g
Activity (Albumin): 97.8%

O=C(Nc1cc(OC(F)(F)F)cc(-c2cccnc2)c1)N1CCc2cccc(F)c21
IC50 (Plasmodium falciparum [18]): 1070 nM
IC50 [1]: > 40000 nM
IC50 (Plasmodium falciparum [2]): 410 nM

COc1cc2c(cc1C(F)(F)F)N(C(=O)Nc1cc(OC(F)(F)F)cc(-c3cc[nH]c3)c1)CC2
IC50 (Plasmodium falciparum [2]): 1070 nM

O=C(Nc1cc(OC(F)(F)F)cc(-c2cccnc2)c1)N1CCc2ccc(Br)cc21
IC50 (Plasmodium falciparum [18]): 640 nM
IC50 (Plasmodium falciparum [2]): 190 nM

COc1cc2c(cc1C(F)(F)F)N(C(=O)Nc1cc(OC(F)(F)F)cc(-c3ccccc3)c1)CC2
IC50 (Plasmodium falciparum [2]): 2260 nM

CN1CCN(c2cc3c(cc2Cl)CCN3C(=O)Nc2cc(OC(F)(F)F)cc(-c3cccnc3)c2)CC1
inhibition in vivo at 50 mg/kg (Plasmodium berghei [24]): 35%
Activity (Plasmodium berghei [25]): Active
IC50 (Plasmodium falciparum [18]): 210 nM
IC50 [1]: 10000 nM
IC50 (Plasmodium falciparum [2]): 140 nM

COc1cc2c(cc1C(F)(F)F)N(C(=O)Nc1cc(Br)cc(OC(F)(F)F)c1)CC2
IC50 [1]: 390 nM
IC50 (Plasmodium falciparum [2]): 4840 nM

COc1cc2c(cc1C(F)(F)F)N(C(=O)Nc1cccc(OC(F)(F)F)c1)CC2
IC50 (Plasmodium falciparum [2]): > 5000 nM

C[C@@H]1CC[C@H]2[C@@H](C)C(=O)O[C@@H]3O[C@@]4(C)CC[C@@H]1[C@]32OO4 [ARTEMISININ]
Activity (Plasmodium falciparum [3]): Active
IC50 (Plasmodium falciparum [2]): 20 nM

COc1cc2c(cc1C(F)(F)F)N(C(=O)Nc1cc(OC(F)(F)F)cc(-c3cncnc3)c1)CC2
IC50 (Plasmodium falciparum [18]): > 1000 nM
IC50 (Plasmodium falciparum [2]): 30 nM

O=C(Nc1cc(OC(F)(F)F)cc(-c2cccnc2)c1)N1CCc2ccccc21
IC50 (Plasmodium falciparum [18]): 20 nM
IC50 [1]: 1250 nM
IC50 (Plasmodium falciparum [2]): 10 nM

COc1cc2c(cc1C(F)(F)F)N(C(=O)Nc1cc(C)cc(OC(F)(F)F)c1)CC2
IC50 (Plasmodium falciparum [2]): > 5000 nM

COc1cc2c(cc1C(F)(F)F)N(C(=O)Nc1cc(-c3cccnc3)cc(C(F)(F)F)c1)CC2
IC50 (Plasmodium falciparum [18]): 810 nM
IC50 [1]: 10 nM
IC50 (Plasmodium falciparum [2]): 140 nM

CN1CCN(c2ccc3c(c2)N(C(=O)Nc2cc(OC(F)(F)F)cc(-c4cccnc4)c2)CC3)CC1
IC50 [1]: > 40000 nM
IC50 (Plasmodium falciparum [2]): 490 nM

COc1cc2c(cc1C(F)(F)F)N(C(=O)Nc1cc(F)cc(-c3cccnc3)c1)CC2
IC50 (Plasmodium falciparum [18]): 2120 nM
IC50 [1]: 10 nM
IC50 (Plasmodium falciparum [2]): 430 nM

O=C(Nc1cc(OC(F)(F)F)cc(-c2cccnc2)c1)N1CCc2cc(F)ccc21
IC50 (Plasmodium falciparum [2]): 10 nM

O=C(Nc1cc(OC(F)(F)F)cc(-c2cccnc2)c1)N1CCc2ccc(F)cc21
IC50 (Plasmodium falciparum [18]): 10 nM
IC50 [1]: 600 nM
CLH (Liver): 2.1 mL/min/g
CLH (Liver microsomes): 0.5 mL/min/g
IC50 (Plasmodium falciparum [2]): 10 nM

O=C(Nc1cc(OC(F)(F)F)cc(-c2cccnc2)c1)N1CCc2ccc(Cl)cc21
IC50 (Plasmodium falciparum [2]): 150 nM

O=C(Nc1cc(OC(F)(F)F)cc(-c2cccnc2)c1)N1CCc2cc(C(F)(F)F)ccc21
IC50 (Plasmodium falciparum [2]): 20 nM

COc1cc2c(cc1C(F)(F)F)N(C(=O)Nc1cc(OC(F)(F)F)cc(-c3ccc(C)nc3)c1)CC2
IC50 (Plasmodium falciparum [18]): 800 nM
IC50 (Plasmodium falciparum [2]): 290 nM

COc1cc2c(cc1C(F)(F)F)N(C(=O)Nc1cc(Br)cc(-c3cccnc3)c1)CC2
IC50 (Plasmodium falciparum [18]): 1100 nM
IC50 [1]: 10 nM
IC50 (Plasmodium falciparum [2]): 160 nM

Cc1ccc2c(c1)N(C(=O)Nc1cc(OC(F)(F)F)cc(-c3cccnc3)c1)CC2
IC50 (Plasmodium falciparum [2]): 30 nM

CCc1nc(N)nc(N)c1-c1ccc(Cl)cc1 [PYRIMETHAMINE]
IC50 (Plasmodium falciparum [18]): > 40000 nM
IC50 (Plasmodium falciparum [2]): 20 nM

COc1cc2c(cc1C(F)(F)F)N(C(=O)Nc1cccc(-c3cccnc3)c1)CC2
IC50 [1]: 7 nM
IC50 (Plasmodium falciparum [2]): 4450 nM

Cc1ccc2c(c1)CCN2C(=O)Nc1cc(OC(F)(F)F)cc(-c2cccnc2)c1
IC50 (Plasmodium falciparum [18]): 40 nM
IC50 (Plasmodium falciparum [2]): 10 nM

O=C(Nc1cc(OC(F)(F)F)cc(-c2cccnc2)c1)N1CCc2ccc(CO)cc21
IC50 [1]: 180 nM
IC50 (Plasmodium falciparum [2]): 400 nM

Cc1cc2c(cc1Cl)N(C(=O)Nc1cc(OC(F)(F)F)cc(-c3cccnc3)c1)CC2
IC50 (Plasmodium falciparum [18]): 140 nM
IC50 (Plasmodium falciparum [2]): 20 nM
